In brackets after ≈: the same amount, converted by molar mass.
What was measured:
[1] = system: MRSA (methicillin resistant Staphylococcus aureus); details: formulated with poloxamer 407, sustained local delivery to the infected ear; cited from earlier work
S. aureus [2] = assay: Sheep model of S. aureus intradiscal infection, prophylactic dosing; assay type: in vivo; details: Example 3; 5 mg/disc on day 0, discreet infection with 10^3 S. aureus per disc on day 3, harvest 24 h after infection
Experimental: (§1) Approximately 1 hour, or at another selected time, after the first injection, each sheep is given a second injection of the test formulation or control formulation. Each disc that was previously successfully injected with bacteria is given a 0.1 ml (target volume) intradiscal injection. As part of the anaesthesia the animal is given analgesics (intra-muscular) in the form of meloxicam at the recommended dosage. This analgesic may be repeated if considered necessary by the named veterinary surgeon. In a prophylactic model, the order of administrations is reversed such that the first injection is a formulation of antibiotic or control and the second injection contains the bacterial inoculum. The time between administration of the antibiotic and bacteria may be hours, days, weeks or months.
The order of the injections may be reversed such that the first injection is a formulation of antibiotic and the second injection contains the bacterial inoculum. The time between administration of the antibiotic and bacteria may be hours, days, weeks or months. The second injection may be co-localised or discreet e.g. injected on the same side of the disc as the first injection or injected on the other side of the disc to the first injection respectively.
Discs were treated with vancomycin (5 mg/disc) on day 0 and on day 3 were discreetly infected with 10^3 S. aureus per disc. […]

[3] = In vitro diffusion and release from poloxamer gel embedded in an agar disc (HPLC); assay type: physicochemical; details: 100 microliters of poloxamer formulation embedded in an agar disc
Experimental: 100 microliters of poloxamer formulation were embedded in an agar disc. The release of loaded compound into media around the agar structure is measured. The assays mimic a disc containing a poloxamer injection. The mass of antibiotic released over 72 h was determined using high-performance liquid chromatography (HPLC).

S. aureus [4] = assay: Sheep model of S. aureus intradiscal infection, therapeutic dosing; assay type: in vivo; details: for discs sterilized: one hour post infection
Excerpt: A sheep model of S. aureus intradiscal infection has been developed to test the in vivo efficacy of antibiotic formulations. Male Charollais or Suffolk cross sheep, approximately 35-40 kg+ at the start of the study were housed according to Home Office guidelines under the Animals (Scientific Procedures) Act 1986 and acclimatised for at least 7 days with straw bedding and access to water. They were fed a Sheep concentrate diet without added antibiotics with additional forage (hay/straw) provided.
The bacterial inoculum (ATCC 29213) is prepared from frozen glycerol/phosphate-buffered saline stock at 2.5×10^6 CFU/ml by dilution to 2×10^4 CFU/ml:
In a therapeutic model, each sheep is anesthetised and given four 0.05 ml (target volume) intradiscal Injections at L1/L2, L2/L3, L3/L4 and L4/5 of S. aureus inoculum (1×10^3 cells/disc), one injection per disc.
as §1
A single 20G 3.5″ spinal needle is positioned directly into the edge of the nucleus pulposus of each disc. Following confirmation of positioning of the needles a second 25G 4.69″ needle primed with the dose solution is inserted into the first needle and the tip placed into the middle of the nucleus pulposus. Following confirmation of positioning of the second needles each disc is injected with the bacteria. The inner needles will then be removed. Just prior to the 1 hour post-dose bacteria time-point a new 25G 4.69″ needle, primed with the dose solution, is inserted into the 20G 3.5″ and positioned into the middle of the nucleus pulposus. The second treatment is dose given via this needle, 1 hour post the first dose.
Bacterial infection: A single 20G 3.5″ spinal needle is positioned directly into the edge of the nucleus pulposus of each disc. Following confirmation of positioning of the needles a second 25G 4.69″ needle primed with the dose solution is inserted into the first needle and the tip placed into the middle of the nucleus pulposus. Following confirmation of positioning of the second needles each disc is injected with the bacteria. The needles will then be removed. The animals are repositioned to access the other side of the spine.
Injection of formulation: A second 20G 3.5″ spinal needle is positioned directly into the edge of the nucleus pulposus on the opposite side to the first injection of each disc. Just prior to time-point for administration a new 25G 4.69″ needle, primed with the dose solution, is inserted into the 20G 3.5″ and positioned into the middle of the nucleus pulposus. The second treatment is dose given via this needle.
At set time-points post-dose the sheep is killed. The injected vertebrae discs are dissected out and the nucleus pulposus from each disc is removed. In addition, an extra untreated disc is sampled to provide control tissue. The disc is removed after all of the treated discs for the particular animal with care to ensure no contamination between control and treated samples.
The sheep intradiscal infection model of Example 1 was used to evaluate the in vivo efficacy of therapeutically dosed vancomycin.

Gram-positive bacteria = details: cited from earlier work

SMILES	effect on MRSA otitis media [1]	average reduction in bacterial burden (S. aureus [2]) [log10]	input antibiotic accounted for (released) after 72 h [3] [%]	discs sterilized (S. aureus [4]; Example 2, discreet dosing, 5 mg vancomycin/disc)	discs sterilized (S. aureus [4]; Example 2, discreet dosing, 20 mg vancomycin/disc)	reduction in average bacterial burden (S. aureus [4]; Example 2, discrete dosing groups) [log10]	discs sterilized (S. aureus [4]; Example 2, vancomycin in Omnipaque with 0.5% hyaluronic acid, co-localised dosing, within 24 h)	sterile discs (S. aureus [4]; Example 9, discrete dosing)	reduction in average disc bacterial burden (S. aureus [4]; Example 9, discrete dosing from the other side of the disc)	MIC (Gram-positive bacteria) [µg/mL]
CN[C@H](CC(C)C)C(=O)N[C@H]1C(=O)N[C@@H](CC(N)=O)C(=O)N[C@H]2C(=O)N[C@H]3C(=O)N[C@H](C(=O)N[C@H](C(=O)O)c4cc(O)cc(O)c4-c4cc3ccc4O)[C@H](O)c3ccc(c(Cl)c3)Oc3cc2cc(c3O[C@@H]2O[C@H](CO)[C@@H](O)[C@H](O)[C@H]2O[C@H]2C[C@](C)(N)[C@H](O)[C@H](C)O2)Oc2ccc(cc2Cl)[C@H]1O [Vancomycin]	completely cures the otitis media caused by MRSA infection	> 3	92	5 of 7	3 of 7	≤ 3	all the discs were effectively sterilized	3 of 8	did not significantly reduce average bacterial disc burden	–
CC(=O)NC[C@H]1CN(c2ccc(N3CCOCC3)c(F)c2)C(=O)O1 [Linezolid]	–	–	57	–	–	–	–	–	–	4 (≈ 11.9 µM)

Reference: patent publication US12161750B2, “Antibiotic formulations for lower back pain” (Persica Pharmaceuticals Ltd., priority 2016, dated 2024)
